Results published in US4870175A, “6-substituted alkoxy-2-oxo-1,2-dihydroquinoxaline derivatives” (Toyo Jozo Kabushiki Kaisha, priority 1987, dated 1989).
Where two headings read alike, the source gives them in different places.

Key:
[1] = test system: cyclic AMP/phosphodiesterase; experiment: Inhibitory action of cyclic AMP/phosphodiesterase (crude enzyme fraction from sonicated rabbit platelets); assay type: biochemical; settings: 40 min
Procedure: The pharmacological activity of the present compounds [1] is illustrated below. (1) Inhibitory action of cyclic AMP/phosphodiesterase:
A mixture of 2 mM MgCl2 /40 mM Tris-buffer (pH 7.5) 700 μl, enzyme solution (a crude enzyme fraction obtained from sonicated rabbit platelets) 100 μl, and a test sample solution (compound [1] dissolved in 50% aqueous methanol) 100 μl is incubated at 30° C. for 5 mins. 3', 5'-cyclic AMP 100 μl (50 μg) is added thereto and the mixture is further incubated for 40 mins. The reaction is stopped by heating 100° C. for 5 mins. The amount of 5'-AMP in the supernatant obtained by centrifugation at 3000 rpm for 5 mins. is measured using HPLC.
As shown in that table, the compound of the present invention has cyclic AMP/phosphodiesterase inhibitory activity at 1-10 μg/ml.

[2] = test system: rabbit platelet-rich plasma; experiment: Platelet aggregation inhibition (rabbit platelet-rich plasma, aggregometer); assay type: cell-based; settings: Oryctolagus cuniculus, compound final concentration 10 μM, read-out: Inhibitory ratio
Procedure: (2) Platelet aggregation inhibition:
A rabbit platelet-rich plasma (5×10^5 /mm^3), to which was added 1/10 volume of a 3.8% sodium citrate solution, 216 μl, is incubated in an aggregometer at 37° C., 1000 rpm, for 3 mins. A test sample solution 12 μl (final concentration 10 μM) is added thereto and the mixture is further incubated for 3 mins., and collagen (aggregation agent) 2.5 μg/ml, ADP 2.5 μM, platelet activating factor (PAF) 0.05 μg/ml or 0.25 mM arachidonic acid (A.A.) 12 μl is added thereto as an aggregating agent, and the platelet aggregation activity is measured.

[3] = aggregating agent PAF 0.05 μg/ml
[4] = aggregating agent arachidonic acid (A.A.) 0.25 mM
[5] = aggregating agent collagen 2.5 μg/ml

SMILES | Inhibitory ratio ([1]; 1 μg/ml) | Inhibitory ratio ([1]; 10 μg/ml) | Inhibitory ratio ([1]; 100 μg/ml) | inhibition at 10 µM ([2]; aggregating agent ADP 2.5 μM) | inhibition at 10 µM [2, 3] | inhibition at 10 µM [2, 4] | inhibition at 10 µM [2, 5]
CCN(C(=O)CCCCOc1ccc2[nH]c(=O)cnc2c1)C1CCCCC1 [Compound 921] | 49.8% | 84.5% | 93.0% | 62.6% | 35.3% | 44.7% | 81%
O=C(CCCOc1ccc2[nH]c(=O)c(-c3ccccc3)nc2c1)N(CCO)C1CCCCC1 [Compound 987] | 57.4% | 83.3% | 90.2% | – | – | – | –
CCOC(=O)CCCOc1ccc2[nH]c(=O)cnc2c1 [Compound 914, 6-(3-ethoxycarbonylpropoxy)-2-oxo-1,2-dihydroquinoxaline] | 18.1% | 34.3% | 54.4% | – | – | – | –
CCOC(=O)CCCOc1ccc2[nH]c(=O)c(-c3ccccc3)nc2c1 [Compound 954] | 42.4% | 54.2% | – | – | – | – | –
CCN(C(=O)CCCOc1ccc2[nH]c(=O)cnc2c1)C1CCCCC1 [Compound 915] | 37.2% | 77.7% | 85.1% | 41% | 36% | 30.4% | 63.2%
COc1ccccc1N1CCN(C(=O)CCCCOc2ccc3[nH]c(=O)cnc3c2)CC1 [Compound 924] | 24.6% | 63.5% | 70.2% | – | – | – | –
O=C(CCCOc1ccc2[nH]c(=O)cnc2c1)N(Cc1ccccc1)C1CCCCC1 [Compound 916] | 47.3% | 78.0% | 85.7% | – | – | – | –
Cc1nc2cc(OCCCC(=O)N(Cc3ccccc3)C3CCCCC3)ccc2[nH]c1=O [Compound 969] | 72.7% | 82.5% | – | – | – | – | –
O=c1cnc2cc(OCCCCc3nnnn3C3CCCCC3)ccc2[nH]1 [Compound 913, 6-[4-(1-cyclohexyl-tetrazole-5-yl)-butoxy]-2-oxo-1,2-dihydroquinoxaline] | 19.2% | 80.3% | – | – | – | – | –
CN(C(=O)CCCOc1ccc2[nH]c(=O)cnc2c1)C1CCCCC1 [Compound 896] | 25.5% | 71.5% | 91.0% | 37.2% | 37.1% | 31.1% | 59.2%
CCOC(=O)CCCCOc1ccc2[nH]c(=O)cnc2c1 [Compound 919] | 23.9% | 65.2% | 92.4% | – | – | – | –
O=C(CCCCOc1ccc2[nH]c(=O)cnc2c1)N(CCO)C1CCCCC1 [Compound 923] | 43.7% | 81.8% | 92.4% | 68% | 29% | 56.7% | 75.7%
O=C(O)CCCOc1ccc2[nH]c(=O)cnc2c1 [Compound 938, 6-(3-carboxypropoxy)-2-oxo-1,2-dihydroquinoxaline] | 17.9% | 63.1% | 88.2% | – | – | – | –
CCc1nc2cc(OCCCC(=O)O)ccc2[nH]c1=O [Compound 956] | 83.9% | 92.9% | 95.0% | – | – | – | –
CCOC(=O)CCCOc1ccc2[nH]c(=O)c(C)nc2c1 [Compound 945] | 44.3% | 83.5% | 88.9% | – | – | – | 54.2%
Cc1nc2cc(OCCCC(=O)N3CCC(c4ccccc4)CC3)ccc2[nH]c1=O [Compound 970] | 24.1% | 51.5% | – | – | – | – | –
CCCc1nc2cc(OCCCC(=O)N(C)C3CCCCC3)ccc2[nH]c1=O [Compound 974] | 73.2% | 91.7% | – | – | – | – | –
COc1ccccc1N1CCN(C(=O)CCCOc2ccc3[nH]c(=O)c(C)nc3c2)CC1 [Compound 968] | 17.1% | 60.3% | – | – | – | – | –
CCOC(=O)CCCOc1ccc2c(c1)NCC(=O)N2 [Compound 925, 6-(3-ethoxycarbonylpropoxy)-2-oxo-1,2,3,4-tetrahydroquinoxaline] | 5.3% | 26.4% | 71.3% | 56.5% | 29.5% | 46.5% | 53.8%
Cc1nc2cc(OCCCC(=O)N(C)C3CCCCC3)ccc2[nH]c1=O [Compound 965] | 68.9% | 87.3% | – | – | – | – | –
CCOC(=O)CCCOc1ccc2[nH]c(=O)c(CC)nc2c1 [Compound 946] | 78.7% | 92.5% | – | 91.5% | 90.7% | 85.1% | 79.2%

SMILES | Inhibitory ratio ([1]; 1 μg/ml) | Inhibitory ratio ([1]; 10 μg/ml) | Inhibitory ratio ([1]; 100 μg/ml) | inhibition at 10 µM ([2]; aggregating agent ADP 2.5 μM) | inhibition at 10 µM [2, 3] | inhibition at 10 µM [2, 4] | inhibition at 10 µM [2, 5]
O=C(CCCOc1ccc2[nH]c(=O)cnc2c1)N(CCO)C1CCCCC1 [Compound 917] | 16.6% | 59.3% | 87.7% | 36.9% | 36.7% | 32.6% | 57.4%
O=C(O)CCCOc1ccc2[nH]c(=O)c(-c3ccccc3)nc2c1 [Compound 964] | 43.8% | 78.8% | 90.5% | – | – | – | –
CN(C(=O)CCCOc1ccc2[nH]c(=O)c(-c3ccccc3)nc2c1)C1CCCCC1 [Compound 986] | 66.2% | 80.5% | – | – | – | – | –
CCN(CC)C(=O)CCCOc1ccc2[nH]c(=O)c(-c3ccccc3)nc2c1 [Compound 988] | 46.4% | 76.9% | – | – | – | – | –
CCc1nc2cc(OCCCC(=O)N(C)C3CCCCC3)ccc2[nH]c1=O [Compound 971] | 84.4% | 93.0% | – | – | – | – | –
CCCCc1nc2cc(OCCCC(=O)O)ccc2[nH]c1=O [Compound 958] | 69.9% | 91.4% | 93.7% | – | – | – | –
CCOC(=O)CCCCOc1ccc2c(c1)NCC(=O)N2 [Compound 927] | 10.5% | 47.7% | 76.1% | – | – | – | –
CCCCCCc1nc2cc(OCCCC(=O)OCC)ccc2[nH]c1=O [Compound 949] | 40.9% | 53.7% | – | – | – | – | –
CCCCCCc1nc2cc(OCCCC(=O)N(CCO)C3CCCCC3)ccc2[nH]c1=O [Compound 978] | 26.2% | 40.1% | – | – | – | – | –
CCCCc1nc2cc(OCCCC(=O)OCC)ccc2[nH]c1=O [Compound 948] | 62.9% | 87.9% | 92.7% | – | – | – | –
Cc1nc2cc(OCCCC(=O)O)ccc2[nH]c1=O [Compound 955, 3-methyl-6-(3-carboxypropoxy)-2-oxo-1,2-dihydroquinoxaline] | 44.2% | 82.3% | 93.0% | – | – | – | –
CCCCCCCCCc1nc2cc(OCCCC(=O)O)ccc2[nH]c1=O [Compound 960] | 34.8% | 61.7% | 87.4% | – | – | – | –
CCCc1nc2cc(OCCCC(=O)O)ccc2[nH]c1=O [Compound 957] | 71.4% | 90.7% | 94.0% | – | – | – | –
COc1ccccc1N1CCN(C(=O)CCCOc2ccc3[nH]c(=O)cnc3c2)CC1 [Compound 918] | 19.8% | 61.0% | 87.9% | – | – | – | –
CCN(CC)C(=O)CCCOc1ccc2[nH]c(=O)c(C)nc2c1 [Compound 967] | 38.0% | 81.0% | 92.8% | – | – | – | –
CCCCc1nc2cc(OCCCC(=O)N(C)C3CCCCC3)ccc2[nH]c1=O [Compound 976] | 51.1% | 84.5% | – | – | – | – | –
CCc1nc2cc(OCCCC(=O)N3CCN(c4ccccc4OC)CC3)ccc2[nH]c1=O [Compound 973] | 37.6% | 42.2% | – | – | – | – | –
O=C(CCCCOc1ccc2[nH]c(=O)cnc2c1)N(Cc1ccccc1)C1CCCCC1 [Compound 922] | 61.7% | 88.1% | 91.1% | – | – | – | –
CCCc1nc2cc(OCCCC(=O)N(CCO)C3CCCCC3)ccc2[nH]c1=O [Compound 975] | 59.5% | 88.9% | 93.5% | – | – | – | –
CCCCCCc1nc2cc(OCCCC(=O)O)ccc2[nH]c1=O [Compound 959] | 43.4% | 80.5% | 91.0% | – | – | – | –
